One assay deals with 3T3-L1 adipocytes. Put plainly: Lipogenesis in 3T3-L1 adipocytes (Oil Red O / BODIPY). It counts as cell-based, murine. The settings on record: relative to controls.
The subject of assay [1] is LPS-treated 3T3-L1 adipocytes. Put plainly: Adiponectin secretion in LPS/3T3-L1 adipocytes. It is filed as cell-based, murine. The note with it: for adiponectin secretion: any dose tested; for % Stimulation of adiponectin secretion (maximum): at the concentration of maximum stimulation, NS = not significantly different from the LPS control.
Assay [2] deals with LPS-stimulated 3T3-L1 adipocytes. The assay is described as follows: IL-6 secretion in LPS/3T3-L1 adipocytes. It is filed as cell-based, murine. The settings on record: at the concentration of maximum inhibition, 100 ng LPS/ml, D5 3T3-L1; for IL-6 Index: indexed to LPS control.
In assay [3] the test system is insulin-resistant 3T3-L1 adipocytes. The assay is described as follows: Adiponectin secretion from insulin-resistant 3T3-L1 adipocytes. It counts as cell-based, murine. The settings on record: 50.0 μg/ml; ratio of Adiponectin Index to IL-6 Index (Table 21).
The subject of assay [4] is TNFα-treated 3T3-L1 adipocytes. Put plainly: Adiponectin secretion from TNFα-treated 3T3-L1 adipocytes. It counts as cell-based, murine. The note with it: 10 ng TNFα/ml.
Protocol: For two days, the cells were allowed grow to reach confluence. […] (3) 0.5 μM dexamethasone and (4) 10 μg/ml insulin (MDI medium). […] Adiponectin Assay—The adiponectin secreted into the medium was quantified using the Mouse Adiponectin Quantikine® Immunoassay kit with no modifications (R&D Systems, Minneapolis, Minn.). […] Statistical Calculations and Interpretation—All assays were preformed in duplicate. […] Differences among the doses and test agents were determined using the Student's t-test without correction for multiple comparisons; the nominal five percent probability of a type I error was selected.
Assay [5] has as its system A549 pulmonary epithelial cells. Put plainly: PGE2 biosynthesis in A549 cells stimulated by mite dust allergen. It is filed as cell-based, human. The settings on record: 10 μg/ml.
Protocol: The filtrate was termed mite dust allergen and used to test for induction of PGE2 biosynthesis in A549 pulmonary epithelial cells.
Mite allergen was added to the culture medium to achieve a final concentration of 1000 ng/ml. Eighteen hours later, the media were sampled for PGE2 determination.
For assay [6], the system named is insulin-resistant 3T3-L1 adipocytes. Put plainly: IL-6 secretion from insulin-resistant 3T3-L1 adipocytes. It is filed as cell-based, murine.
Protocol: Statistical Calculations and Interpretation—All assays were preformed in duplicate. For statistical analysis, the effect of hops derivatives on adiponectin or IL-6 secretion was computed relative to the solvent control. Differences among the doses were determined using analysis of variance without correction for multiple comparisons; the nominal five percent probability of a type I error was selected.
The next assay relates to DBA/J mice. Put plainly: Collagen induced rheumatoid arthritis murine model (arthritic index, histology, serum IL-6). The note with it: 10 mg/kg. It is filed as in vivo, mouse.
The next assay deals with db/db mice. The assay is described as follows: Non-fasting serum glucose and insulin in db/db diabetic mice. It counts as in vivo, mouse. The note with it: three daily doses.

The text below walks through data of patent publication US20080033056A1 (Metaproteomics, LLC, priority 2006, published 2008).

Marks after values point to notes of the source that are not given here.

Protocol for db/db mice: The Model—Male, C57BLKS/J m^+/m^+Lepr^db (db/db) mice were used to assess the potential of the test materials to reduce fasting serum glucose or insulin concentrations. This strain of mice is resistant to leptin by virtue of the absence of a functioning leptin receptor.
Testing Procedure—Test substances were administered daily by gavage in 0.2% Tween-80. Serum was collected from the retroorbital sinus before the initial dose and ninety minutes after the third and final dose. Non-fasting serum glucose was determined enzymatically by the mutarotase/glucose oxidase method and serum insulin was determined by a mouse specific ELISA.
The Model—Male, C57BLKS/J m+/m+Leprdb (db/db) mice were used to assess the potential of the test materials to reduce fasting serum glucose or insulin concentrations. This strain of mice is resistant to leptin by virtue of the absence of a functioning leptin receptor.
Testing Procedure—Test substances were administered daily by gavage in 0.2% Tween-80. […] Non-fasting serum glucose was determined enzymatically by the mutarotase/glucose oxidase method and serum insulin was determined by a mouse specific ELISA.

On to `CC(C)CCC1=C(O)C(C(=O)C(C)C)=C(O)C(CCC(C)C)(CCC(C)C)C1=O` [Hexahydro colupulone], for which, in the assay on 3T3-L1 adipocytes, the lipogenic/adipogenic response entry is “failed to elicit a lipogenic response”.
With `O=C(O)c1ccccc1O` [salicylic acid], the adiponectin secretion entry in assay [1] (LPS 100 ng/ml) is on record as “failed to induce adiponectin secretion”. Also, the “IL-6 Index” value in [2] is on record as 0.52*.
As to `COc1ccc2c(c1)c(CC(=O)O)c(C)n2C(=O)c1ccc(Cl)cc1` [Indomethacin], in assay [1] (LPS 100 ng/ml, […]), the “stimulation of adiponectin secretion” value came to 9%. For the same molecule, the “% Stimulation of adiponectin secretion (maximum)” value (“% Stimulation” below) in [1] came to 9%. For the same molecule, the lipogenic/adipogenic response entry in the assay on 3T3-L1 adipocytes is reported as “induced lipogenesis to a similar extent”. In assay [2], the “% Inhibition of IL-6 secretion (maximum)” value was 53* %.
Consider `CC(C)CCC1=C(O)C(C(=O)C(C)C)=C(O)C(CCC(C)C)(CCC(C)C)C1=O` [Hexahydrocolupulone (HHCL)], for which the Adiponectin/IL-6 in assay [3] is reported as 0.60#.
In the case of `CCc1ccc(CCOc2ccc(CC3SC(=O)NC3=O)cc2)nc1` (stereo not shown) [Pioglitazone], the “% Stimulation” value in assay [1] is 12%. Moreover, the “maximum increase of adiponectin secretion over TNFα control” value in [4] is on record as 80%. Further, in [4] (Test/TNFα control), the “Adiponectin Index (maximum)” value is reported as 1.47. In assay [2], the “IL-6 Index” value is 0.37*.
With `CC(=O)Oc1ccccc1C(=O)O` [Aspirin], the adiponectin secretion result in [1] (LPS 100 ng/ml) is given as “failed to induce adiponectin secretion”.
As for Beta acids, the lipogenic/adipogenic response entry in the assay with 3T3-L1 adipocytes was “comparable to indomethacin and troglitazone”. Also, the “Percent PGE2 Inhibition” value in assay [5] was 83%.
Turning to `COc1cc(O)c(CC=C(C)C)c(O)c1C(=O)/C=C/c1ccc(O)cc1` [xanthohumol], the lipogenic/adipogenic response entry with 3T3-L1 adipocytes is “comparable to indomethacin and troglitazone”. In addition, the IL-6 secretion result in assay [6] is recorded as “Significant decreases in IL-6 secretion”.
Turning to `C[C@]12C=CC(=O)C=C1CC[C@@H]1[C@@H]2[C@@H](O)C[C@@]2(C)[C@H]1CC[C@]2(O)C(=O)CO` [prednisolone], the “reduction of serum IL-6 levels” value with DBA/J mice was “reached a statistical significance”.
Take `CN(C)C(=N)N=C(N)N` [metformin]: in the assay on db/db mice, the “serum glucose relative to the controls” value is “decreased” and the “serum insulin relative to the controls” value is “decreased”.
`Cc1c(C)c2c(c(C)c1O)CCC(C)(COc1ccc(CC3SC(=O)NC3=O)cc1)O2` (stereo not shown) [Troglitazone]: the “% Stimulation” value in assay [1] is reported as 15%. Moreover, in assay [4], the “maximum increase of adiponectin secretion over TNFα control” value was 51%.
